Reference: patent publication US8802597B2, “Herbicidal pyrimidines” (E I du Pont de Nemours and Company, priority 2003, dated 2014)
Like-named read-outs stand apart in the source and are kept apart here.

Legend:
Type in all cases: in vivo
[1] = test system: Surinam grass (Brachiaria decumbens); assay: Test C pre/postemergence; conditions: Urochloa decumbens; for pest or weed control at 125 g/ha: 125 g ai/ha; for pest or weed control at 500 g/ha: 500 g ai/ha; for pest or weed control at 62 g/ha: 62 g ai/ha; for pest or weed control at 250 g/ha: 250 g ai/ha
From the text: (§1) Seeds or nutlets of plant species selected from bermudagrass (Cynodon dactylon), Surinam grass (Brachiaria decumbens), cocklebur (Xanthium strumarium), corn (Zea mays), crabgrass (Digitaria sanguinalis), woolly cupgrass (Eriochloa villosa), giant foxtail (Setaria faberii), goosegrass (Eleusine indica), johnsongrass (Sorghum halepense), kochia (Kochia scoparia), lambsquarters (Chenopodium album), morningglory (Ipomoea coccinea), eastern black nightshade (Solanum ptycanthum), yellow nutsedge (Cyperus esculentus), pigweed (Amaranthus retroflexus), common ragweed (Ambrosia elatior), soybean (Glycine max), common (oilseed) sunflower (Helianthus annuus), and velvetleaf (Abutilon theophrasti) were planted and treated preemergence with test chemicals formulated in a non-phytotoxic solvent mixture which included a surfactant.
(§2) At the same time, plants selected from these crop and weed species and also winter barley (Hordeum vulgare), blackgrass (Alopecurus myosuroides), canarygrass (Phalaris minor), chickweed (Stellaria media), downy brome (Bromus tectorum), green foxtail (Setaria viridis), Italian ryegrass (Lolium multiflorum), wheat (Triticum aestivum), wild oat (Avena fatua) and windgrass (Apera spica-venti) were treated with postemergence applications of some of the test chemicals formulated in the same manner. Plants ranged in height from 2 to 18 cm (1- to 4-leaf stage) for postemergence treatments. Plant species in the flooded paddy test consisted of rice (Oryza sativa), umbrella sedge (Cyperus difformis), duck salad (Heteranthera limosa) and barnyardgrass (Echinochloa crus-galli) grown to the 2-leaf stage for testing. Treated plants and controls were maintained in a greenhouse for 12 to 14 days, after which time all species were compared to controls and visually evaluated. Plant response ratings, summarized in Table C, are based on a scale of 0 to 100 where 0 is no effect and 100 is complete control. A dash (-) response means no test result.

[2] = test system: crabgrass (Digitaria sanguinalis); assay: Test C pre/postemergence; conditions: Digitaria sanguinalis; for pest or weed control at 62 g/ha: 62 g ai/ha; for pest or weed control at 125 g/ha: 125 g ai/ha; for pest or weed control at 250 g/ha: 250 g ai/ha; for pest or weed control at 500 g/ha: 500 g ai/ha
From the text: as §1, §2

[3] = test system: giant foxtail (Setaria faberii); assay: Test C pre/postemergence; conditions: Setaria faberi; for pest or weed control at 125 g/ha: 125 g ai/ha; for pest or weed control at 500 g/ha: 500 g ai/ha; for pest or weed control at 62 g/ha: 62 g ai/ha; for pest or weed control at 250 g/ha: 250 g ai/ha
From the text: as §1, §2

[4] = test system: yellow nutsedge (Cyperus esculentus); assay: Test C pre/postemergence; conditions: Cyperus; for pest or weed control at 62 g/ha: 62 g ai/ha; for pest or weed control at 125 g/ha: 125 g ai/ha; for pest or weed control at 250 g/ha: 250 g ai/ha; for pest or weed control at 500 g/ha: 500 g ai/ha
From the text: as §1, §2

[5] = test system: chickweed (Stellaria media); assay: Test C postemergence; conditions: Stellaria media, post-emergence; for pest or weed control at 62 g/ha: 62 g ai/ha, scale 0 to 100 (0 no effect, 100 complete control), read-out: Chickweed plant response rating; for pest or weed control at 125 g/ha: 125 g ai/ha; for pest or weed control at 125 g/ha / pest or weed control at 250 g/ha / pest or weed control at 500 g/ha: scale 0 to 100, read-out: Plant response rating, Chickweed; for pest or weed control at 250 g/ha: 250 g ai/ha; for pest or weed control at 500 g/ha: 500 g ai/ha
From the text: as §1, §2

[6] = post-emergence, Postemergence, scale 0 to 100 (0 no effect, 100 complete control), read-out: Surinam Grass plant response rating
[7] = post-emergence, Postemergence, scale 0 to 100, read-out: Plant response rating, Surinam Grass
[8] = pre-emergence, Preemergence, scale 0 to 100, 0 no effect, 100 complete control, read-out: Plant response rating, Surinam Grass
[9] = pre-emergence, Preemergence, scale 0 to 100, read-out: Plant response rating, Surinam Grass
[10] = post-emergence, Postemergence, scale 0 to 100 (0 no effect, 100 complete control), read-out: Crabgrass plant response rating
[11] = post-emergence, Postemergence, scale 0 to 100, read-out: Plant response rating, Crabgrass
[12] = pre-emergence, Preemergence, scale 0 to 100, 0 no effect, 100 complete control, read-out: Plant response rating, Crabgrass
[13] = pre-emergence, Preemergence, scale 0 to 100, read-out: Plant response rating, Crabgrass
[14] = post-emergence, Postemergence, scale 0 to 100 (0 no effect, 100 complete control), read-out: Foxtail, Giant plant response rating
[15] = post-emergence, Postemergence, scale 0 to 100, read-out: Plant response rating, Foxtail, Giant
[16] = pre-emergence, Preemergence, scale 0 to 100, 0 no effect, 100 complete control, read-out: Plant response rating, Foxtail, Giant
[17] = pre-emergence, Preemergence, scale 0 to 100, read-out: Plant response rating, Foxtail, Giant
[18] = post-emergence, Postemergence, scale 0 to 100 (0 no effect, 100 complete control), read-out: Nutsedge, Yellow plant response rating
[19] = post-emergence, Postemergence, scale 0 to 100, read-out: Plant response rating, Nutsedge, Yellow
[20] = pre-emergence, Preemergence, scale 0 to 100, 0 no effect, 100 complete control, read-out: Plant response rating, Nutsedge, Yellow
[21] = pre-emergence, Preemergence, scale 0 to 100, read-out: Plant response rating, Nutsedge, Yellow

Work on CNc1nc(C2CC2)nc(C(=O)OC)c1Br [Compound 5] yielded a pest or weed control at 125 g/ha [1, 6] of 20%, a pest or weed control at 500 g/ha [1, 7] of 70% and a pest or weed control at 62 g/ha [1, 6] of 0%. For the same compound, the pest or weed control at 250 g/ha [1, 7] was 30%, the pest or weed control at 62 g/ha [1, 8] was 0% and the pest or weed control at 125 g/ha [1, 9] was 0%. For the same compound, the pest or weed control at 250 g/ha [1, 9] was 0%, the pest or weed control at 500 g/ha [1, 9] was 0% and the pest or weed control at 62 g/ha [2, 10] was 40%. The pest or weed control at 125 g/ha [2, 10] was 50%, the pest or weed control at 250 g/ha [2, 11] was 70% and the pest or weed control at 500 g/ha [2, 11] was 80%. It also gave a pest or weed control at 62 g/ha [2, 12] of 0%, a pest or weed control at 125 g/ha [2, 13] of 0% and a pest or weed control at 250 g/ha [2, 13] of 20%. It also gave a pest or weed control at 500 g/ha [2, 13] of 60%, a pest or weed control at 125 g/ha [3, 14] of 30% and a pest or weed control at 500 g/ha [3, 15] of 60%. For the same compound, the pest or weed control at 62 g/ha [3, 14] was 20%, the pest or weed control at 250 g/ha [3, 15] was 50% and the pest or weed control at 62 g/ha [3, 16] was 0%. For the same compound, the pest or weed control at 125 g/ha [3, 17] was 0%, the pest or weed control at 250 g/ha [3, 17] was 10% and the pest or weed control at 500 g/ha [3, 17] was 60%. The pest or weed control at 62 g/ha [4, 18] was 0%, the pest or weed control at 125 g/ha [4, 18] was 0% and the pest or weed control at 250 g/ha [4, 19] was 0%. The pest or weed control at 500 g/ha [4, 19] was 0%, the pest or weed control at 62 g/ha [4, 20] was 0% and the pest or weed control at 125 g/ha [4, 21] was 0%. It also gave a pest or weed control at 250 g/ha [4, 21] of 0%, a pest or weed control at 500 g/ha [4, 21] of 0% and a pest or weed control at 62 g/ha [5] of 0%. The pest or weed control at 125 g/ha [5] was 10% and the pest or weed control at 250 g/ha [5] was 20%.

For COC(=O)c1nc(C2CC2)nc(N)c1I [Compound 7], the pest or weed control at 125 g/ha [1, 6] was 0%, the pest or weed control at 500 g/ha [1, 7] was 0% and the pest or weed control at 62 g/ha [1, 6] was 0%. The pest or weed control at 250 g/ha [1, 7] was 0%, the pest or weed control at 62 g/ha [2, 10] was 0% and the pest or weed control at 125 g/ha [2, 10] was 0%. For the same compound, the pest or weed control at 250 g/ha [2, 11] was 5%, the pest or weed control at 500 g/ha [2, 11] was 25% and the pest or weed control at 125 g/ha [3, 14] was 0%. For the same compound, the pest or weed control at 500 g/ha [3, 15] was 10%, the pest or weed control at 62 g/ha [3, 14] was 0% and the pest or weed control at 250 g/ha [3, 15] was 0%. For the same compound, the pest or weed control at 62 g/ha [4, 18] was 0%, the pest or weed control at 125 g/ha [4, 18] was 0% and the pest or weed control at 250 g/ha [4, 19] was 0%. The pest or weed control at 500 g/ha [4, 19] was 0%, the pest or weed control at 62 g/ha [5] was 0% and the pest or weed control at 125 g/ha [5] was 0%. It also gave a pest or weed control at 250 g/ha [5] of 0% and a pest or weed control at 500 g/ha [5] of 0%.

Nc1nc(C2CC2)nc(C(=O)O)c1Br [Compound 8] was tested, and the pest or weed control at 125 g/ha [1, 6] was 65%, the pest or weed control at 500 g/ha [1, 7] was 80% and the pest or weed control at 62 g/ha [1, 6] was 40%. It also gave a pest or weed control at 250 g/ha [1, 7] of 70%, a pest or weed control at 62 g/ha [1, 8] of 0% and a pest or weed control at 125 g/ha [1, 9] of 100%. The pest or weed control at 250 g/ha [1, 9] was 100%, the pest or weed control at 500 g/ha [1, 9] was 100% and the pest or weed control at 62 g/ha [2, 10] was 60%. It also gave a pest or weed control at 125 g/ha [2, 10] of 65%, a pest or weed control at 250 g/ha [2, 11] of 70% and a pest or weed control at 500 g/ha [2, 11] of 75%. For the same compound, the pest or weed control at 62 g/ha [2, 12] was 0%, the pest or weed control at 125 g/ha [2, 13] was 0% and the pest or weed control at 250 g/ha [2, 13] was 0%. The pest or weed control at 500 g/ha [2, 13] was 0%, the pest or weed control at 125 g/ha [3, 14] was 60% and the pest or weed control at 500 g/ha [3, 15] was 75%. It also gave a pest or weed control at 62 g/ha [3, 14] of 40%, a pest or weed control at 250 g/ha [3, 15] of 70% and a pest or weed control at 62 g/ha [3, 16] of 0%. For the same compound, the pest or weed control at 125 g/ha [3, 17] was 0%, the pest or weed control at 250 g/ha [3, 17] was 0% and the pest or weed control at 500 g/ha [3, 17] was 0%. The pest or weed control at 62 g/ha [4, 18] was 0%, the pest or weed control at 125 g/ha [4, 18] was 0% and the pest or weed control at 250 g/ha [4, 19] was 0%. For the same compound, the pest or weed control at 500 g/ha [4, 19] was 0%, the pest or weed control at 62 g/ha [4, 20] was 0% and the pest or weed control at 125 g/ha [4, 21] was 0%. It also gave a pest or weed control at 250 g/ha [4, 21] of 100%, a pest or weed control at 500 g/ha [4, 21] of 100% and a pest or weed control at 62 g/ha [5] of 20%. It also gave a pest or weed control at 125 g/ha [5] of 75%, a pest or weed control at 250 g/ha [5] of 95% and a pest or weed control at 500 g/ha [5] of 100%.
